The text below walks through data of paper PMC3785365 (Clinical cancer research : an official journal of the …, 2011).

In data set [1] the test system is phosphorylation of S6 and 4E-BP1. In words: Western blot of mTOR signaling. It is filed as cell-based, human. The conditions noted are these: glioma cells. On the technique in general: A western blot detects proteins with antibodies after separation by electrophoresis.
The target of another data set is KDR (Homo sapiens, UniProt P35968). In words: Biochemical kinase assay, KDR.
Sequence of KDR (P35968 20-1356, species assumed): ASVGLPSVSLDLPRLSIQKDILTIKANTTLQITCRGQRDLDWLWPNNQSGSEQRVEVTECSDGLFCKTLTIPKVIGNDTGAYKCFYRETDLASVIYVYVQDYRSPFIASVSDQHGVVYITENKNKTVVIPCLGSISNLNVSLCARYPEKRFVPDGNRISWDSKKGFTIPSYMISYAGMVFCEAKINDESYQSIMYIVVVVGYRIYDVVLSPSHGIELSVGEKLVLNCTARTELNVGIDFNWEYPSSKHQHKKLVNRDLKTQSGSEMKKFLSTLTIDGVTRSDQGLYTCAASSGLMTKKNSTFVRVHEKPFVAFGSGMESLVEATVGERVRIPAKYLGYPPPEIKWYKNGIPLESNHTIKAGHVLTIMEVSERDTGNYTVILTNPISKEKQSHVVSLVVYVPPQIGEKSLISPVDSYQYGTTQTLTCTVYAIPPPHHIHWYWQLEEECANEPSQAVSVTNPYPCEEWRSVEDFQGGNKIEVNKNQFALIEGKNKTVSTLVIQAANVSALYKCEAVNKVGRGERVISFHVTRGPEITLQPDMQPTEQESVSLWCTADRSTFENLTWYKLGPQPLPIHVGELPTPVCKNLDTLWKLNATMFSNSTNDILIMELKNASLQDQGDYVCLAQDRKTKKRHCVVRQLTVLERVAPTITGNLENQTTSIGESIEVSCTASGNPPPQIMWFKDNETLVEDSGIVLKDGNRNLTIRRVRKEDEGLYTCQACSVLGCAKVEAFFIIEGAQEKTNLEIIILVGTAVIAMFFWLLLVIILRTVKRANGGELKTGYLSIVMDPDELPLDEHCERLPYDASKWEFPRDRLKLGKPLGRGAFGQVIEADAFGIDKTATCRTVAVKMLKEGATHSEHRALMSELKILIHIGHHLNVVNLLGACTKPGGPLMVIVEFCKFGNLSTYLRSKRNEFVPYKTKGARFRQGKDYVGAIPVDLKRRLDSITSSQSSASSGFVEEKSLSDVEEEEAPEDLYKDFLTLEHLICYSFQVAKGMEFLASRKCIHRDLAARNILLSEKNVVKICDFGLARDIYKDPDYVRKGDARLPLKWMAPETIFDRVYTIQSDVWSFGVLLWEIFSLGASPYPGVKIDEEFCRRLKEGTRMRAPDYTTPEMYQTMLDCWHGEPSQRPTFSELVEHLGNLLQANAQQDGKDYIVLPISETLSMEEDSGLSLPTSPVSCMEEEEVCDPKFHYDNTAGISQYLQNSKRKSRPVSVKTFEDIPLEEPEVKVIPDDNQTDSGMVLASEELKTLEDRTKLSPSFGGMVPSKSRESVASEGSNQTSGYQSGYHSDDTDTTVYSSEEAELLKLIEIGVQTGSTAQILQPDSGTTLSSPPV
A further data set addresses c-Met (Homo sapiens, UniProt P08581). Kind of data set: Biochemical kinase assay, c-Met.
Data set [2] concerns U87 intracranial xenografts. In words: Intracranial U87 glioma xenograft survival model. It is filed as in vivo. Conditions: nude mice, control 26 days.
The nature of data set [3]: Tolerability in treated tumor-bearing mice. The class given is in vivo. The conditions noted are these: 20 or 40 mg/kg oral.
Another data set concerns U343 cells. In words: Mitotic index. The class given is cell-based, human. The conditions noted are these: U343 (p53-wt); 2 μm, 72 hours; control cells 1% to 3%.
Another data set addresses FGFR3 (Homo sapiens, UniProt P22607). Kind of data set: Biochemical kinase assay, FGFR3.
Another data set relates to glioma cell lines. In words: Annexin V apoptosis assay by flow cytometry. The conditions noted are these: 72 hours. (In flow cytometry, cells or beads pass a laser one at a time.)
The subject of a further data set is phosphorylation of Akt. In words: Inhibition of Akt phosphorylation by immunoblot in U87MG and LN18 cells. The conditions noted are these: Homo sapiens, read-out: IC50 for inhibiting phosphorylation of Akt.
A further data set concerns D54 cells. In words: Mitotic index. It is filed as cell-based, human. Conditions: D54 (p53-wt); 2 μm, 72 hours; control cells 1% to 3%.
For another data set, the system named is LN229 cells. Kind of data set: Mitotic index. It is filed as cell-based, human. The conditions noted are these: LN229 (p53-mutant/deleted); 2 μm, 72 hours; control cells 1% to 3%.
For a further data set, the system named is U251 cells. Kind of data set: Mitotic index. The class given is cell-based, human. Conditions: U251 (p53-mutant/deleted); 2 μm, 72 hours; control cells 1% to 3%.
For the next data set, the system named is LN18 cells. Kind of data set: Mitotic index. It is filed as cell-based, human. The conditions noted are these: LN18 (p53-mutant/deleted); 2 μm, 72 hours; control cells 1% to 3%.
The next data set relates to U87 cells. Kind of data set: Mitotic index. Conditions: U87 (p53-wt); 2 μm, 72 hours; control cells 1% to 3%. The class given is cell-based, human.
The target of another data set is Tek (Homo sapiens, UniProt Q02763). In words: Biochemical kinase assay, Tek.
Sequence of Tek (Q02763 23-1124, species assumed): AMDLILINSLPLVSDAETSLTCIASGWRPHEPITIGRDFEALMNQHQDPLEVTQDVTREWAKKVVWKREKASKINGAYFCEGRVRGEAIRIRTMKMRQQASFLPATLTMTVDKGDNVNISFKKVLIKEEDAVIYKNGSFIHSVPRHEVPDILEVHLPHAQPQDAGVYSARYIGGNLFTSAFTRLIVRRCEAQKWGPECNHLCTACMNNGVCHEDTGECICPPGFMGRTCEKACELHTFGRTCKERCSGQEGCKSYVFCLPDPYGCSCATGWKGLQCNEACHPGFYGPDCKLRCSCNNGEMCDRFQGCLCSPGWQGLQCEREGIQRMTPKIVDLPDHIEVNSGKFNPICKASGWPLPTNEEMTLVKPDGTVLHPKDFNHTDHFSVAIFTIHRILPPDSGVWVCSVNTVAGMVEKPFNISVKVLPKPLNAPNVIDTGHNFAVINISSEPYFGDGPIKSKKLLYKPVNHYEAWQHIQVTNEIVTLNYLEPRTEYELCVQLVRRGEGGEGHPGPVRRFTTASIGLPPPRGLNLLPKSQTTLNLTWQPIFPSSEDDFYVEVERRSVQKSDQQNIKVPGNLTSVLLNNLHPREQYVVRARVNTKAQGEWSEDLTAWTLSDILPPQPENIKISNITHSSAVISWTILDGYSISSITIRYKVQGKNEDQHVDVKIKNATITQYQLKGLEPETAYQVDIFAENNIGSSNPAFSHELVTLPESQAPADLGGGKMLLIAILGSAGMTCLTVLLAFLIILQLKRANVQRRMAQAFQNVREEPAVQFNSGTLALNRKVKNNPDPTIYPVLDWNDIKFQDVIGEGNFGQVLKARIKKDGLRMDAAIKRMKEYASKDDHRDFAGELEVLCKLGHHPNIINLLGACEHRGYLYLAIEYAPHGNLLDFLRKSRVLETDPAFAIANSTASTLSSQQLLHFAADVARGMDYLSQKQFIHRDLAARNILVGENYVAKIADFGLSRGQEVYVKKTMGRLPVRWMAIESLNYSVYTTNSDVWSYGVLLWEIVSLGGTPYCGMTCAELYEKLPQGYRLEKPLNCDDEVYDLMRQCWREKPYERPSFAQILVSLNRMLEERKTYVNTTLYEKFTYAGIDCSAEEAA
In the next data set the target is T1, PDK1 (Homo sapiens, UniProt O15530).
T1 sequence (O15530 1-556): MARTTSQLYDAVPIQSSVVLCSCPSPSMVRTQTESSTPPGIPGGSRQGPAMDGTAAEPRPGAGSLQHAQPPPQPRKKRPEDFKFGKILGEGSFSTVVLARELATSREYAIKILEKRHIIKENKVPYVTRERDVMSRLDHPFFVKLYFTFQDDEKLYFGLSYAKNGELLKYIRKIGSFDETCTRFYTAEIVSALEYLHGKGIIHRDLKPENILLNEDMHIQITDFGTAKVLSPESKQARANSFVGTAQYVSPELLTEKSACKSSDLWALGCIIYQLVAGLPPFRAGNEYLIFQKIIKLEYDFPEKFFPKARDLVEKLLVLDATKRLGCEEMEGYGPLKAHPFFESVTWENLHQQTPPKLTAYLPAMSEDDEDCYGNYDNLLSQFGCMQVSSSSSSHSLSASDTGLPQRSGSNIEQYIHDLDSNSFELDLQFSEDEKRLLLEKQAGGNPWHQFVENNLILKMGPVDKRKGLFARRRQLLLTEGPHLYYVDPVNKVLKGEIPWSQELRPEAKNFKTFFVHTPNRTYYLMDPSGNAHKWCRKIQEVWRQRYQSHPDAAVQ
Kind of data set: Biochemical kinase assay, PDK1.

In a further data set the test system is p110γ. The conditions noted are these: cited from earlier work.
The subject of the next data set is p110δ. The conditions noted are these: cited from earlier work.
A further data set deals with P110α (Homo sapiens, UniProt P42336). Conditions: cited from earlier work.

Sequence of c-Met (P08581 25-1390): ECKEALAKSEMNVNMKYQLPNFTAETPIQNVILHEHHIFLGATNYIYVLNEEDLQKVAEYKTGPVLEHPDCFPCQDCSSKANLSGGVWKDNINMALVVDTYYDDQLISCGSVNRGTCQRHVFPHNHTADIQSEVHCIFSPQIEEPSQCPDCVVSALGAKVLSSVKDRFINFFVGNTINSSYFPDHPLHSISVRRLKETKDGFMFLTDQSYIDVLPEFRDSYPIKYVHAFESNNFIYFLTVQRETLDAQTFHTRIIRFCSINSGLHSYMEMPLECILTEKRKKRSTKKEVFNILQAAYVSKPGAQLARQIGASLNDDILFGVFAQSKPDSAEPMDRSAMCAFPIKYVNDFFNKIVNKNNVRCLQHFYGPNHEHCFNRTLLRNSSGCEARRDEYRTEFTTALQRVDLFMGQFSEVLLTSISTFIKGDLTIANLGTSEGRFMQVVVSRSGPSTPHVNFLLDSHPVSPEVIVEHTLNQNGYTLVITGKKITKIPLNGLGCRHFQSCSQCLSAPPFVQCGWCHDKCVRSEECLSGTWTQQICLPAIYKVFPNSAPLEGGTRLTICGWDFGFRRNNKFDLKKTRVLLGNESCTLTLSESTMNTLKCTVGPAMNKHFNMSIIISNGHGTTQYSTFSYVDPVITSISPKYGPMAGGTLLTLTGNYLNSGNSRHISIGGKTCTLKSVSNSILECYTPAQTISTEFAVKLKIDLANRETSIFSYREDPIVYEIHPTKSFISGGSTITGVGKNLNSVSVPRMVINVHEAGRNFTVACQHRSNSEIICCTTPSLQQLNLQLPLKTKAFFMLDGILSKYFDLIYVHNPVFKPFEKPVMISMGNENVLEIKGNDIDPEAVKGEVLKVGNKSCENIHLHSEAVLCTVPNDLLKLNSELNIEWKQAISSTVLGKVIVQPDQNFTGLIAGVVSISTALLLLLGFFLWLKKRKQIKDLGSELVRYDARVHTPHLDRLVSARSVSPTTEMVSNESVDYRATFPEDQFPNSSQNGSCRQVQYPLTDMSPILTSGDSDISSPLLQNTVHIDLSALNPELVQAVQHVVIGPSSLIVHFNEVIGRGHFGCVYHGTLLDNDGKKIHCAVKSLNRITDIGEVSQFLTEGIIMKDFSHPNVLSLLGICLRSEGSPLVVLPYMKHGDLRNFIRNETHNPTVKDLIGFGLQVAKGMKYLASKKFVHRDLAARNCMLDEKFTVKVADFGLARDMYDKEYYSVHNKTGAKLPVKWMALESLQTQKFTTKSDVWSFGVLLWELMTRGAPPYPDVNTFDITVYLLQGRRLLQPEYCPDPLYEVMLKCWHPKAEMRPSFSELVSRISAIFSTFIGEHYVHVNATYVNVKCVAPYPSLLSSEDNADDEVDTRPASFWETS
Sequence of FGFR3 (P22607 23-806, species assumed): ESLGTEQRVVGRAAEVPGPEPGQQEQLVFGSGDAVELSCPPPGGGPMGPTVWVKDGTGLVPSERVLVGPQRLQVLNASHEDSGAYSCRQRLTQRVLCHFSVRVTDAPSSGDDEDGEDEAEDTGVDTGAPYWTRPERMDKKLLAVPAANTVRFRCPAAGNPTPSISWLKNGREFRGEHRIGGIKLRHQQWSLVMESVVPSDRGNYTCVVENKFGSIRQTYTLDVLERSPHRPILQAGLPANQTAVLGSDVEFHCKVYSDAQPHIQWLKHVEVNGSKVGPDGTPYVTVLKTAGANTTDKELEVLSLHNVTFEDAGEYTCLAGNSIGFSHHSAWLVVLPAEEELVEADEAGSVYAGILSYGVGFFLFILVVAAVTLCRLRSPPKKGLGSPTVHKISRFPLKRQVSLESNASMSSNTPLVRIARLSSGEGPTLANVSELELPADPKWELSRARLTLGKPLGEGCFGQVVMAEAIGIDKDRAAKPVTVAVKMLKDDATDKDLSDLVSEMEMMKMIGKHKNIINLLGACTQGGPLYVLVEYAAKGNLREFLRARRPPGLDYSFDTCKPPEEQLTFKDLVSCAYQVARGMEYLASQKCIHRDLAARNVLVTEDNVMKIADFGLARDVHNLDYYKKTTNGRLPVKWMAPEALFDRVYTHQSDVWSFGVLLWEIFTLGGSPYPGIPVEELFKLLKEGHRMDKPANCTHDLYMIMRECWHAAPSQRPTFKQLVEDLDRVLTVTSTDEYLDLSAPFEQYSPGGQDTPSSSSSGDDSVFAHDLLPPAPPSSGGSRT

On to `Cn1c(=O)n(-c2ccc(C(C)(C)C#N)cc2)c2c3cc(-c4cnc5ccccc5c4)ccc3ncc21` [NVP-BEZ235, reference compound], for which the “effect on phosphorylation of S6 and 4E-BP1” value in data set [1] is “nearly complete dephosphorylation of both S6 and 4E-BP1”.

Regarding `Nc1cc(C(F)(F)F)c(-c2cc(N3CCOCC3)nc(N3CCOCC3)n2)cn1` [NVP-BKM120], the IC50 – broadly, the concentration at which inhibition is half-maximal – on KDR is greater than 10 µM; against c-Met it was greater than 10 µM; on FGFR3, greater than 10 µM; in the data set on phosphorylation of Akt, 0.5 to 1 µM; on Tek it was greater than 10 µM; on PDK1, greater than 10 µM. For the same molecule, the “effect on phosphorylation of S6 and 4E-BP1” value in data set [1] is recorded as “minor dephosphorylation only of the S6 protein”. The median survival time amounted to 38 days in [2] (20 mg/kg oral) and 48 days in [2] (40 mg/kg oral). Further, the “adverse effects with respect to body weight, water intake, and general activity” value in [3] is listed as “no obvious signs of adverse effects”. The “cells in mitosis (phospho-H3 positive) after treatment” value in the data set on U343 cells is reported as 3%; in the data set with D54 cells it was 2.8%; in the data set on LN229 cells it was 7.9%; in the data set on U251 cells it was 12.4%; in the data set on LN18 cells, 7.3%; in the data set with U87 cells, 2.6%. Also, the “change of the percentage of apoptosis (Annexin V)” value amounted to 3.98% in the data set on glioma cell lines (p53-mutant/deleted cell lines) and 14.52% with glioma cell lines (p53-wt cell lines).

With `C=CCN(/C=C1/C(=O)O[C@H](COC)[C@@]2(C)C1=C(O)C(=O)C1=C2[C@H](OC(C)=O)C[C@]2(C)C(=O)CC[C@@H]12)CC=C` [PX-866], the IC50 result in the data set with p110γ, in the data set with p110δ and at P110α was “low nanomolar range” throughout.
